Assay results taken from patent US5932580A, “PDGF receptor kinase inhibitory compounds their preparation and compositions” (priority 1997, dated 1999).

How the values were obtained:
[1] = test system: human internal mammary artery smooth muscle cells (IMA SMC); assay: Inhibition of cell proliferation and recovery, human IMA SMC; type: cell-based
Text: Smooth muscle cells (SMC) were obtained under aseptic conditions from porcine abdominal aortas, and human internal mammary arteries (IMA). Specimens from the operating room were transferred on ice to the tissue culture room. Each artery was cut open and the endothelial surface mechanically scraped. The vessels were then cut into 2 mm^2 fragments which were placed in culture dishes with Dulbecco's modified Eagle's medium (DMEM) supplemented with 15% (v/v) fetal calf serum (FCS), 100 u/ml penicillin, 100 μg/ml streptomycin, and […] L-glutamine. The tissue fragments were then placed in an incubator at 37° C. under 9% CO2 atmosphere until SMC outgrowth was detected (typically within 3-7 days). […] For experiments testing the effect of tyrphostins on growth inhibition and recovery (see below), SMC from passages 1-3 were replated in 15 mm wells pretreated with 3 μg/cm^2 fibronectin (Biological Industries, Kibbutz Beit Haemek, Israel) at 15,000 cells/well.
Inhibition of cell proliferation and recovery: Monolayer cell growth inhibition and recovery experiments were repeated 3 or 4 times. Each experiment was performed in triplicate. Approximately 15,000 cells (SMC or EC) in 1 ml of culture medium supplemented with 15% FCS were seeded on day 0 in 15 mm-wells precoated with fibronectin. Cultures were treated with a tyrphostin (10 μM) dissolved in 0.1% DMSO on days 1 and 3. On day 6, cultures were washed and the cells allowed to recover. Typically cells were counted on days 3 and 5 for inhibition, and on days 7, 10 and 15 for recovery, other schedules were also employed as reported below. The medium supplemented with serum (M-199 with ECGS for EC, and DMEM for SMC) was changed every other day throughout the experiment.
FIG. 9 presents the maximal inhibitory and recovery effects on human IMA SMC growth inflicted by 10 or 25 μM of AG1851 and AG1295. Cells were grown in the presence of the specified tyrphostins and were counted after seven days in culture. On day 7 the cultures were washed and the cells allowed to recover. Seven days later they were counted for recovery. The bar graph show the maximal inhibition and the recovery in each experiment and for controls.

SRC kinase = biological target: T1, SRC kinase (Gallus gallus, UniProt P00523, Y527F); assay: Src kinase activity assay (immunoprecipitate from src-transformed NIH 3T3 cells); type: biochemical, chicken; settings: read-out: IC50 (50% inhibition of phosphorylation) SRC kinase
T1 construct: expressed in transfected cells; host or cells: NIH 3T3, stably transfected (gift of S. Courtneidge, Heidelberg)
Description: Src kinase activity assay: src-transformed NIH 3T3 cells were grown in 24-well plates to confluency; rinsed twice with a solution containing 20 mM Tris, 0.1 mM sodium-o-vanadate, and 150 mM NaCl (pH 7.5); and lysed in 100 μl/well of lysis buffer containing 20 mM Tris (pH 8.0), 150 mM NaCl, 1% Nonidet P-40, 2.5 mM EDTA, 10 mM NaF, 1% trasylol, and 20 μm leupeptin. The lysate was clarified by centrifugation and subjected to immunoprecipitation with the anti-Src monoclonal antibody MAb 327 (Oncogene Science; 0.5 μg antibody/80 μg protein) for 1 hour at 4° C. Then, goat anti-mouse IgG (Sigma; 0.2 μg per 0.5 μg monoclonal antibody 327) was added and incubation was continued for 30 mi followed by another 40 min of incubation with 10 μl of protein A-Sepharose Cl-4B (Pharmacia). The immunoprecipitates were washed five times with the lysis buffer and twice with kinase buffer containing 40 mM Hepes (pH 7.4), 0.5 mM dithiothreitol, 5 mM MnCl2, and 0.1 mM sodium-o-vanadate. The immunoprecipitates were suspended in kinase buffer and aliquots corresponding to 40 μg of cell lysate protein were preincubated with or without tyrphostin for 15 min at 30° C. Then, the kinase reaction was performed in the presence of 2 μg of acid-treated enolase and 10 μCi of [γ-^32 P]ATP (2 μM) in a final volume of 30 μl. The reaction was terminated by addition of SDS-PAGE sample buffer (6% SDS, 30% β-mercaptoetlhanol, 40% glycerol, and 0.5 mg/ml bromophenol blue) and the incorporation of radioactivity in the enolase was analyzed by SDS-PAGE and autoradiography as well as Phosphor-Imager quantification.

EGFR = biological target: T2, EGFR (Mus musculus, UniProt Q01279); assay: EGFR autophosphorylation, isolated membranes or intact Swiss 3T3 cells; type: biochemical; settings: read-out: IC50 (50% inhibition of phosphorylation) EGFR
T2 construct: Membranes were prepared from confluent cultures of Swiss 3T3 cells; endogenous in cells; host or cells: Swiss 3T3 (obtained from E. Rozengurt, London)
Description: Assay of receptor autophosphorylation in intact 3T3 cells: Confluent Swiss 3T3 cells in 24-well plates (Nunc) were incubated for 20-24 hours in serum-free DMEM. Subsequently, tyrphostins were added at concentrations ranging from 0 to 100 μM (final DMSO concentration, 0.5%) and the incubation was continued for 6-8 hours. The cells were then stimulated with 100 ng/ml PDGF-BB for 5 min at room temperature or 600 ng/ml EGF for 2.5 min on ice. The growth factor treatment was terminated by washing twice with ice-cold PBS and the cells were scraped off the wells in 60 μl lysis buffer containing 20 mM Hepes (pH 7.4), 150 mM NaCl, 1% Triton X-100, 10 mM sodium pyrophosphate, 50 mM NaF, 2 mM sodium-o-vanadate, 20 μm zinc acetate, 10 nM EDTA, 2 mM [ethylenebis(oxyethilenenitrilo)] tetraacetic acid, 1 mM phenylmethylsulfonyl fluoride, and 5 μg/ml leupeptin.
The cell lysates were clarified by centrifugation (cooled microfuge, 17,000 rpm, 15 min) and analyzed by SDS-PAGE (6.5% gels) and immunoblotting with anti-phosphotyrosine antibodies (either PY 20, ICN, and subsequently a peroxidase-coupled secondary antibody, or RC20-peroxidase conjugate, Affinity, Nottingham, United Kingdom). The blots were developed with a chemiluminescence detection system (Western Light, Tropix, or ECL, Amersham).
Membrane autophosphorylation assays: Membranes were prepared from confluent cultures of Swiss 3T3 cells as described [22]. For measuring receptor autophosphorylation, 10 μg membrane protein per assay were incubated for 20 min on ice in the presence of 1.2 μg/ml EGF or 2 μg/ml PDGF, or both; 50 mM Hepes (pH 7.5); and 3 mm MnCl2 (final concentrations) in a volume of 45 μl. In order to test the effects and determine the IC50 value of various tyrphostins, these were added in a volume of 0.5 μl (in DMSO; final concentration, 0.5%) 15 min before addition of the growth factors, in a range of concentrations. […] For quantification of radioactivity in electrophoresis gels, a Phospho-Imager (Molecular Dynamics, Fuji, or Bio-Rad) was used according to the instructions of the manufacturers. […]

[2] = test system: porcine endothelial cells (EC); assay: Inhibition of cell proliferation and recovery, porcine EC; type: cell-based; settings: Sus scrofa, Endothelial cell; FIG. 8 experiment; 10 μM; read-out: maximal inhibitory effect on porcine EC proliferation
Text: Endothelial cells (EC) were isolated from porcine carotid arteries. Using aseptic procedure, both common carotid arteries were isolated, and the distal end of each artery was cannulated through an arteriotomy and ligated. The arteries were then perfused with phosphate buffered saline (PBS) and the proximal end ligated isolating a 5-7 cm long blood-free portion of the artery. The isolated portion of each artery was filled with PBS containing calcium and magnesium and 0.1% collagenase (Boehringer Manneheim, Germany). The segments were excised and incubated for 10 min at 37° C. in sterile bottles containing PBS. […] Cells were seeded on fibronectin-coated dishes at a seeding density of 15,000 cells/well and incubated at 37° C. in 9% CO2. ECGS (25 μg/ml) was added every other day until confluence was observed, typically within 6-8 days.
Inhibition of cell proliferation and recovery: Monolayer cell growth inhibition and recovery experiments were repeated 3 or 4 times. Each experiment was performed in triplicate. […] Cultures were treated with a tyrphostin (10 μM) dissolved in 0.1% DMSO on days 1 and 3. On day 6, cultures were washed and the cells allowed to recover. Typically cells were counted on days 3 and 5 for inhibition, and on days 7, 10 and 15 for recovery, other schedules were also employed as reported below.

T2 sequence (Q01279 25-1210): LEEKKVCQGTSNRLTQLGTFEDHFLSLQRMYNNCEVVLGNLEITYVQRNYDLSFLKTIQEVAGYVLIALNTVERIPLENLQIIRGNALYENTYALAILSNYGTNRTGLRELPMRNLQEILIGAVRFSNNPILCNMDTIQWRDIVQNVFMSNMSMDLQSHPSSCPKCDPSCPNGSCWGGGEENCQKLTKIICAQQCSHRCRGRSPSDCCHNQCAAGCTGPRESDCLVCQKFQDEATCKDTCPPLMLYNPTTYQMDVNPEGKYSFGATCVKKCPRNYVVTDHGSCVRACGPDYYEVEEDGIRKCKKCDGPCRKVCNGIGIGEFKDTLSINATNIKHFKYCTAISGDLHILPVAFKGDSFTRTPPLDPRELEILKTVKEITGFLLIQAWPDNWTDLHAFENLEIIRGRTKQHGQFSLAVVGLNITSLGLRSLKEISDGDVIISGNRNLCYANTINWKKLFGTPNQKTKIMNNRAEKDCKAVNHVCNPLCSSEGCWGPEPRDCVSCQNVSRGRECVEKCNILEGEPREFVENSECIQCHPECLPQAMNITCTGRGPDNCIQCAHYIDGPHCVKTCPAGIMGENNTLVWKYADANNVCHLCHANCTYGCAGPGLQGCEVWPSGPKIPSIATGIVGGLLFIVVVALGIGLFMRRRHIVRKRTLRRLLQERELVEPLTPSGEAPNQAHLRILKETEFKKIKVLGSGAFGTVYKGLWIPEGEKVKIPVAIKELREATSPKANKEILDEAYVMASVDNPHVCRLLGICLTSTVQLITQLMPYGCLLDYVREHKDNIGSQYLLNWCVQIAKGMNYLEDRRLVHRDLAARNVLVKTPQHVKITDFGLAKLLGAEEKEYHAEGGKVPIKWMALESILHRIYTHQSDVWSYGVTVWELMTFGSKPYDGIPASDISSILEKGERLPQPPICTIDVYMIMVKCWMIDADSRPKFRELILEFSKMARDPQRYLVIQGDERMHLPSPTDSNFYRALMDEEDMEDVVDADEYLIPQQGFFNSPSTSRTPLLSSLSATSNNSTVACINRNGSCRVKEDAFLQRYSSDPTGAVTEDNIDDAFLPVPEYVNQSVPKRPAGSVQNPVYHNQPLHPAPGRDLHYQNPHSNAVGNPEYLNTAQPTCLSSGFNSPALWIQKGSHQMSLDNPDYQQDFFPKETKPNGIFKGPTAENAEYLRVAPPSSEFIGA

Structure (SMILES)	reversibility of the effect on IMA SMC upon removal of the tyrphostin ([1]; 25 μM)	inhibition at 25 µM ([1]; Homo sapiens, 120 h, read-out: mean reduction / inhibition of IMA SMC proliferation compared to untreated or DMSO-treated cells) [%]	IC50 (SRC kinase) [µM]	IC50 (EGFR) [µM]	inhibition at 10 µM [2] [%]
Cc1nc2cc3nc(-c4ccccc4)cnc3cc2n1C [AG1851]	completely reversible	54	> 30	> 30	
Cc1nc2cc3nc(-c4cccs4)cnc3cc2n1C [AG1992]			> 30	> 30	52
